Data reported in ChEMBL document CHEMBL4680082 (J Med Chem, 2016).
Several values for one entry are separate records, joined by “and”; a condition that tells them apart may be missing. Equal entries are not always repeated.

These compounds were tested against T1, 5-hydroxytryptamine receptor 2C (Homo sapiens) (UniProt P28335) (assay: Agonist activity at human 5-HT2C receptor expressed in human Flp-In-293 cells assessed as induction of calcium flux incubated for 1 hr by Fluo-4 direct dye based FLIPR assay relative to 5-HT). Details: filed as agonist.
T1 sequence (whole entry): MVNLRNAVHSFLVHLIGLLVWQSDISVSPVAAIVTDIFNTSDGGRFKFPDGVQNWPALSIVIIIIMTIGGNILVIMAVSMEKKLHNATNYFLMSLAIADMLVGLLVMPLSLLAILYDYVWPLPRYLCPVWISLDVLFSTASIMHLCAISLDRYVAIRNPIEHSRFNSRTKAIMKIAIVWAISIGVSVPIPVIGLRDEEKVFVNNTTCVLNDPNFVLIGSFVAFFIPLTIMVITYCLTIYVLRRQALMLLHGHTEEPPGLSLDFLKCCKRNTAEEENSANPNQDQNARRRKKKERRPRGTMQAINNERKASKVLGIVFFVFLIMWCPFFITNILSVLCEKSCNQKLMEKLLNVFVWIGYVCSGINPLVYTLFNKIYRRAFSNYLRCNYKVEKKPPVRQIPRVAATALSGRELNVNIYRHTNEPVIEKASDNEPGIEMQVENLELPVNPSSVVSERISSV
Type: functional, cell-based
Compound `CCOc1ccc2oc(CC)cc2c1[C@@H]1C[C@H]1CN` has an Emax of 76%. For `NC[C@@H]1C[C@H]1c1c(OCC2CC2)ccc2c1CCO2`, the Emax was 65%. Work on `C=CCOc1ccc2c(c1[C@@H]1C[C@H]1CN)CCO2` yielded an Emax of 90%. `CCc1cc2c([C@@H]3C[C@H]3CN)c(OCC3CC3)ccc2o1` gave an Emax of 69%. `NC[C@@H]1C[C@H]1c1c(OCC2CC2)ccc2occc12` gave an Emax of 87%. `CCCOc1ccc2occc2c1[C@H]1C[C@@H]1CN` gave an Emax of 98%. `C=C(F)COc1ccc2occc2c1[C@@H]1C[C@H]1CN` was tested, and the Emax was 93%. `CCc1cc2c([C@H]3C[C@@H]3CN)c(OC)ccc2o1` was tested, and the Emax was 101%. `CCOc1ccc2oc(CC)cc2c1[C@H]1C[C@@H]1CN` was tested, and the Emax was 100%. Compound `NC[C@H]1C[C@@H]1c1c(OCC2CC2)ccc2occc12` has an Emax of 99%. In the case of `C=C(F)COc1ccc2occc2c1[C@H]1C[C@@H]1CN`, the Emax is reported as 103%. Compound `CCc1cc2c([C@@H]3C[C@H]3CN)c(OC)ccc2o1` has an Emax of 88%. `C=CCOc1ccc2occc2c1[C@@H]1C[C@H]1CN` gave an Emax of 101%. In the case of `C=C(C)COc1ccc2occc2c1[C@@H]1C[C@H]1CN`, the Emax is reported as 70%. `CCCOc1ccc2occc2c1[C@@H]1C[C@H]1CN` was tested, and the Emax was 88%. `CCc1cc2c([C@@H]3C[C@H]3CN)c(OCCF)ccc2o1` showed an Emax of 84%. `CCOc1ccc2occc2c1[C@H]1C[C@@H]1CN` showed an Emax of 106%. Compound `CCOc1ccc2occc2c1[C@@H]1C[C@H]1CN` has an Emax of 107%. In the case of `CCCOc1ccc2c(c1[C@H]1C[C@@H]1CN)CCO2`, the Emax is reported as 104%. `CCCOc1ccc2c(c1[C@@H]1C[C@H]1CN)CCO2` gave an Emax of 94%. Compound `C=C(C)COc1ccc2occc2c1[C@H]1C[C@@H]1CN` has an Emax of 99%. Compound `CCc1cc2c([C@H]3C[C@@H]3CN)c(OCC3CC3)ccc2o1` has an Emax of 101%. In the case of `NC[C@H]1C[C@@H]1c1c(OCC2CC2)ccc2c1CCO2`, the Emax is reported as 95%. In the case of `NC[C@@H]1C[C@H]1c1c(OCCF)ccc2occc12`, the Emax is reported as 98%. For `NC[C@@H]1C[C@H]1c1c(OCCF)ccc2c1CCO2`, the Emax was 79%.

Each compound was assayed against T2, 5-hydroxytryptamine receptor 2B (Homo sapiens, UniProt P41595) (assay: Agonist activity at human 5-HT2B receptor expressed in human Flp-In-293 cells assessed as induction of calcium flux incubated for 1 hr by Fluo-4 direct dye based FLIPR assay relative to 5-HT). Details: not given.
T2 sequence (P41595 whole entry): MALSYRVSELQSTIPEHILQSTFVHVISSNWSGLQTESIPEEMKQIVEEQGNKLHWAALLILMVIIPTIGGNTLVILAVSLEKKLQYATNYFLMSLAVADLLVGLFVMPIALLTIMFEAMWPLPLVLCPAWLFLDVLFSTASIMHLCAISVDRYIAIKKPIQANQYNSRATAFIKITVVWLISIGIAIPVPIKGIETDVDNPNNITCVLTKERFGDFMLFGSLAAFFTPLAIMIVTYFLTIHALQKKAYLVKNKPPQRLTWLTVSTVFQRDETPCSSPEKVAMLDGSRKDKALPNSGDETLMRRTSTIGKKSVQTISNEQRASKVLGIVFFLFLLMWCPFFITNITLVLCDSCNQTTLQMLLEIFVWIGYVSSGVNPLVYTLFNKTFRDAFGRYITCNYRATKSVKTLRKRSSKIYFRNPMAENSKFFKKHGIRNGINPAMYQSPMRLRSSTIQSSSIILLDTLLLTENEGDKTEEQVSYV
Type: functional, cell-based
`NC[C@@H]1C[C@H]1c1c(OCC2CC2)ccc2occc12` was tested, and the Emax was 27%. Compound `C=C(F)COc1ccc2occc2c1[C@@H]1C[C@H]1CN` has an Emax of 29%. For `NC[C@H]1C[C@@H]1c1c(OCC2CC2)ccc2occc12`, the Emax was 27%. `C=C(F)COc1ccc2occc2c1[C@H]1C[C@@H]1CN` was tested, and the Emax was 38%. In the case of `C=C(C)COc1ccc2occc2c1[C@@H]1C[C@H]1CN`, the Emax is reported as 33%. `NC[C@@H]1C[C@H]1c1c(OCCF)ccc2occc12` showed an Emax of 34%.

Same assay, conditions: filed as agonist
`C=C(C)COc1ccc2occc2c1[C@H]1C[C@@H]1CN` was tested, and the Emax was 40%.

Each compound was assayed against T3, 5-hydroxytryptamine receptor 2A (Homo sapiens, UniProt P28223) (assay: Agonist activity at human 5-HT2A receptor expressed in human Flp-In-293 cells assessed as induction of calcium flux incubated for 1 hr by Fluo-4 direct dye based FLIPR assay relative to 5-HT). Details: not given.
T3 sequence (P28223 whole entry): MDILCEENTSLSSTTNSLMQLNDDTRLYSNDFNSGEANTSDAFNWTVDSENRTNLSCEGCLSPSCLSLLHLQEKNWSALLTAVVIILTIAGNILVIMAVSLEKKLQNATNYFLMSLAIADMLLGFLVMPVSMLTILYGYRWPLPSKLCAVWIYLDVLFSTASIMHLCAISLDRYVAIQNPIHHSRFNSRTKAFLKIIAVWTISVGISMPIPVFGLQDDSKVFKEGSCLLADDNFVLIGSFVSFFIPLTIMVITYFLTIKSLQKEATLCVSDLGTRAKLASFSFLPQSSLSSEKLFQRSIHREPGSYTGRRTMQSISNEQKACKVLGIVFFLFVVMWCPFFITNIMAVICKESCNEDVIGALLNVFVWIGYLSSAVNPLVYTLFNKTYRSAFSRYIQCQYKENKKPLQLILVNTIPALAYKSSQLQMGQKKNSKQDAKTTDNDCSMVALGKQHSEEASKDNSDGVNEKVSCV
Type: functional, cell-based
In the case of `CCOc1ccc2occc2c1[C@@H]1C[C@H]1CN`, the Emax is reported as 15%. Work on `NC[C@@H]1C[C@H]1c1c(OCCF)ccc2occc12` yielded an Emax of 22%.

Same assay, conditions: filed as agonist
With `CCOc1ccc2occc2c1[C@H]1C[C@@H]1CN` the Emax was 74%. For `NC[C@@H]1C[C@H]1c1c(OCCF)ccc2c1CCO2`, the Emax was 55%.

These compounds were tested against T4, 5-hydroxytryptamine receptor 2C (Homo sapiens, UniProt P28335). Details: not given.
T4 sequence (P28335 whole entry): T1 sequence (whole entry)
Compound `CCOc1ccc2oc(CC)cc2c1[C@@H]1C[C@H]1CN` has an EC50 of 115 nM. `NC[C@@H]1C[C@H]1c1c(OCC2CC2)ccc2c1CCO2` was tested, and the EC50 was 283 nM. In the case of `C=CCOc1ccc2c(c1[C@@H]1C[C@H]1CN)CCO2`, the EC50 is reported as 94 nM. `CCc1cc2c([C@@H]3C[C@H]3CN)c(OCC3CC3)ccc2o1` gave an EC50 of 446 nM. `NC[C@@H]1C[C@H]1c1c(OCC2CC2)ccc2occc12` was tested, and the EC50 was 113 nM. Work on `CCCOc1ccc2occc2c1[C@H]1C[C@@H]1CN` yielded an EC50 of 10 nM. Compound `C=C(F)COc1ccc2occc2c1[C@@H]1C[C@H]1CN` has an EC50 of 99 nM. `CCc1cc2c([C@H]3C[C@@H]3CN)c(OC)ccc2o1` showed an EC50 of 2.7 nM. `CCOc1ccc2oc(CC)cc2c1[C@H]1C[C@@H]1CN` gave an EC50 of 15 nM. With `NC[C@H]1C[C@@H]1c1c(OCC2CC2)ccc2occc12` the EC50 was 12 nM. `C=C(F)COc1ccc2occc2c1[C@H]1C[C@@H]1CN` gave an EC50 of 9.2 nM. For `CCc1cc2c([C@@H]3C[C@H]3CN)c(OC)ccc2o1`, the EC50 was 101 nM. `C=CCOc1ccc2occc2c1[C@@H]1C[C@H]1CN` showed an EC50 of 56 nM. In the case of `C=C(C)COc1ccc2occc2c1[C@@H]1C[C@H]1CN`, the EC50 is reported as 261 nM. For `CCCOc1ccc2occc2c1[C@@H]1C[C@H]1CN`, the EC50 was 87 nM. With `CCc1cc2c([C@@H]3C[C@H]3CN)c(OCCF)ccc2o1` the EC50 was 81 nM. Work on `CCOc1ccc2occc2c1[C@H]1C[C@@H]1CN` yielded an EC50 of 2.6 nM. `CCCOc1ccc2oc(CC)cc2c1[C@H]1C[C@@H]1CN` was tested, and the EC50 was 81 nM. Work on `CCOc1ccc2occc2c1[C@@H]1C[C@H]1CN` yielded an EC50 of 26 nM. Work on `CCCOc1ccc2c(c1[C@H]1C[C@@H]1CN)CCO2` yielded an EC50 of 20 nM. `CCCOc1ccc2c(c1[C@@H]1C[C@H]1CN)CCO2` showed an EC50 of 96 nM. Compound `C=C(C)COc1ccc2occc2c1[C@H]1C[C@@H]1CN` has an EC50 of 25 nM. `CCc1cc2c([C@H]3C[C@@H]3CN)c(OCC3CC3)ccc2o1` was tested, and the EC50 was 138 nM. `NC[C@H]1C[C@@H]1c1c(OCC2CC2)ccc2c1CCO2` gave an EC50 of 26 nM. `NC[C@@H]1C[C@H]1c1c(OCCF)ccc2occc12` gave an EC50 of 33 nM. Work on `NC[C@@H]1C[C@H]1c1c(OCCF)ccc2c1CCO2` yielded an EC50 of 302 nM.

Each compound was assayed against T2, 5-hydroxytryptamine receptor 2B. Details: not given.
`NC[C@@H]1C[C@H]1c1c(OCC2CC2)ccc2occc12` was tested, and the EC50 was 513 nM and 524 nM. `C=C(F)COc1ccc2occc2c1[C@@H]1C[C@H]1CN` gave an EC50 of 585 nM. `CCc1cc2c([C@H]3C[C@@H]3CN)c(OC)ccc2o1` showed an EC50 of 60 nM. Compound `CCOc1ccc2oc(CC)cc2c1[C@H]1C[C@@H]1CN` has an EC50 of 309 nM. Work on `NC[C@H]1C[C@@H]1c1c(OCC2CC2)ccc2occc12` yielded an EC50 of 180 nM. With `C=C(F)COc1ccc2occc2c1[C@H]1C[C@@H]1CN` the EC50 was 128 nM. `C=C(C)COc1ccc2occc2c1[C@@H]1C[C@H]1CN` was tested, and the EC50 was 733 nM. With `CCOc1ccc2occc2c1[C@H]1C[C@@H]1CN` the EC50 was 84 nM. Work on `CCCOc1ccc2c(c1[C@H]1C[C@@H]1CN)CCO2` yielded an EC50 of 258 nM. In the case of `C=C(C)COc1ccc2occc2c1[C@H]1C[C@@H]1CN`, the EC50 is reported as 150 nM. Work on `NC[C@H]1C[C@@H]1c1c(OCC2CC2)ccc2c1CCO2` yielded an EC50 of 269 nM. `NC[C@@H]1C[C@H]1c1c(OCCF)ccc2occc12` gave an EC50 of 448 nM.

Each compound was assayed against T3, 5-hydroxytryptamine receptor 2A. Details: not given.
For `CCCOc1ccc2occc2c1[C@H]1C[C@@H]1CN`, the EC50 was 392 nM. `CCc1cc2c([C@H]3C[C@@H]3CN)c(OC)ccc2o1` gave an EC50 of 939 nM. For `CCOc1ccc2oc(CC)cc2c1[C@H]1C[C@@H]1CN`, the EC50 was 2630 nM and 2600 nM. Work on `NC[C@H]1C[C@@H]1c1c(OCC2CC2)ccc2occc12` yielded an EC50 of 456 nM. Compound `C=C(F)COc1ccc2occc2c1[C@H]1C[C@@H]1CN` has an EC50 of 358 nM. Work on `CCOc1ccc2occc2c1[C@H]1C[C@@H]1CN` yielded an EC50 of 111 nM. Compound `CCOc1ccc2occc2c1[C@@H]1C[C@H]1CN` has an EC50 of 585 nM. `CCCOc1ccc2c(c1[C@H]1C[C@@H]1CN)CCO2` gave an EC50 of 749 nM. For `C=C(C)COc1ccc2occc2c1[C@H]1C[C@@H]1CN`, the EC50 was 260 nM. `NC[C@H]1C[C@@H]1c1c(OCC2CC2)ccc2c1CCO2` showed an EC50 of 754 nM. Compound `NC[C@@H]1C[C@H]1c1c(OCCF)ccc2occc12` has an EC50 of 393 nM. For `NC[C@@H]1C[C@H]1c1c(OCCF)ccc2c1CCO2`, the EC50 was 1960 nM.
